Assays:
sedge, umbrella = experiment: Test D flooded paddy test; assay type: in vivo, Cyperus difformis; conditions: 250 g ai/ha, applied to paddy water, visual rating after 13 to 14 days, scale 0 to 100 (0 no effect, 100 complete control)
Summary of the method: (§1)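 Plants grown to the 2-leaf stage; pots flooded to 3 cm above soil at treatment and held at that depth throughout. Test compounds applied directly to the paddy water. After 13 to 14 days in a greenhouse, response was rated visually versus controls on a 0 (no effect) to 100 (complete control) scale.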

oat, wild [1] = experiment: Test C postemergence; assay type: in vivo, Avena fatua; conditions: 125 g ai/ha, postemergence, 10 days; 0 to 100 scale, 0 no effect, 100 complete control
Summary of the method: (§2)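 Visual injury ratings on a 0–100 scale (100 = complete control) were made against untreated controls 10 days after treatment in the greenhouse. Compounds, formulated with surfactant in non-phytotoxic solvent, were sprayed on soil preemergence or onto one- to two-leaf plants 2–10 cm tall postemergence.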

barnyardgrass [2] = experiment: Test C postemergence; assay type: in vivo, Echinochloa crusgalli; conditions: 10 days
Summary of the method: as §2

rice = experiment: Test D flooded paddy test; assay type: in vivo, Oryza sativa; conditions: 250 g ai/ha, applied to paddy water, visual rating after 13 to 14 days, scale 0 to 100 (0 no effect, 100 complete control)
Summary of the method: as §1

horseweed = experiment: Test C postemergence; assay type: in vivo, Erigeron canadensis; conditions: 10 days
Summary of the method: as §2

wheat [3] = experiment: Test C postemergence; assay type: in vivo, Triticum aestivum; conditions: 125 g ai/ha, postemergence, 10 days; 0 to 100 scale, 0 no effect, 100 complete control
Summary of the method: as §2

corn [4] = experiment: Test C postemergence; assay type: in vivo, Zea mays; conditions: 10 days
Summary of the method: as §2

galium = experiment: Test C postemergence; assay type: in vivo, Galium aparine; conditions: 10 days
Summary of the method: as §2

barnyardgrass [5] = experiment: Test C preemergence; assay type: in vivo, Echinochloa crusgalli; conditions: 0 to 100 scale (0 no effect, 100 complete control)
Summary of the method: as §2

ducksalad = experiment: Test D flooded paddy test; assay type: in vivo, Heteranthera limosa; conditions: 250 g ai/ha, applied to paddy water, visual rating after 13 to 14 days, scale 0 to 100 (0 no effect, 100 complete control)
Summary of the method: as §1

green foxtail [6] = experiment: Test C postemergence; assay type: in vivo, Setaria viridis; conditions: 10 days
Summary of the method: as §2

soybean [7] = experiment: Test C preemergence; assay type: in vivo, Glycine max; conditions: preemergence, 0 to 100 scale (0 no effect, 100 complete control)
Summary of the method: as §2

kochia [8] = experiment: Test C preemergence; assay type: in vivo, Bassia scoparia; conditions: preemergence, 0 to 100 scale (0 no effect, 100 complete control)
Summary of the method: as §2

ryegrass, Italian [9] = experiment: Test C postemergence; assay type: in vivo, Lolium multiflorum; conditions: 125 g ai/ha, postemergence, 10 days; 0 to 100 scale, 0 no effect, 100 complete control
Summary of the method: as §2

ryegrass, Italian [10] = experiment: Test C preemergence; assay type: in vivo, Lolium multiflorum; conditions: preemergence, 0 to 100 scale (0 no effect, 100 complete control)
Summary of the method: as §2

corn [11] = experiment: Test C preemergence; assay type: in vivo, Zea mays; conditions: 500 g ai/ha, preemergence; 0 to 100 scale (0 no effect, 100 complete control)
Summary of the method: as §2

oat, wild [12] = experiment: Test C preemergence; assay type: in vivo, Avena fatua; conditions: preemergence, 0 to 100 scale (0 no effect, 100 complete control)
Summary of the method: as §2

kochia [13] = experiment: Test C postemergence; assay type: in vivo, Bassia scoparia; conditions: 125 g ai/ha, postemergence, 10 days; 0 to 100 scale, 0 no effect, 100 complete control
Summary of the method: as §2

pigweed, palmer [14] = experiment: Test C preemergence; assay type: in vivo, Amaranthus palmeri; conditions: preemergence, 0 to 100 scale (0 no effect, 100 complete control)
Summary of the method: as §2

pigweed, palmer [15] = experiment: Test C postemergence; assay type: in vivo, Amaranthus palmeri; conditions: 125 g ai/ha, postemergence, 10 days; 0 to 100 scale, 0 no effect, 100 complete control
Summary of the method: as §2

ragweed [16] = experiment: Test C postemergence; assay type: in vivo, Ambrosia artemisiifolia; conditions: 125 g ai/ha, postemergence, 10 days; 0 to 100 scale, 0 no effect, 100 complete control
Summary of the method: as §2

wheat [17] = experiment: Test C preemergence; assay type: in vivo, Triticum aestivum; conditions: preemergence, 0 to 100 scale (0 no effect, 100 complete control)
Summary of the method: as §2

ragweed [18] = experiment: Test C preemergence; assay type: in vivo, Ambrosia artemisiifolia; conditions: preemergence, 0 to 100 scale (0 no effect, 100 complete control)
Summary of the method: as §2

green foxtail [19] = experiment: Test C preemergence; assay type: in vivo, Setaria viridis; conditions: preemergence, 0 to 100 scale (0 no effect, 100 complete control)
Summary of the method: as §2

blackgrass [20] = experiment: Test C preemergence; assay type: in vivo, Alopecurus myosuroides; conditions: 0 to 100 scale (0 no effect, 100 complete control)
Summary of the method: as §2

blackgrass [21] = experiment: Test C postemergence; assay type: in vivo, Alopecurus myosuroides; conditions: 10 days
Summary of the method: as §2

barnyardgrass [22] = experiment: Test D flooded paddy test; assay type: in vivo, Echinochloa crus-galli; conditions: 250 g ai/ha, applied to paddy water, visual rating after 13 to 14 days, scale 0 to 100 (0 no effect, 100 complete control)
Summary of the method: as §1

soybean [23] = experiment: Test C postemergence; assay type: in vivo, Glycine max; conditions: 125 g ai/ha, postemergence, 10 days; 0 to 100 scale, 0 no effect, 100 complete control
Summary of the method: as §2

[24] = 125 g ai/ha, postemergence, 0 to 100 scale, 0 no effect, 100 complete control
[25] = Postemergence, 500 g ai/ha, visual 0 to 100 scale (0 no effect, 100 complete control)
[26] = Preemergence, 500 g ai/ha, visual rating after 10 days
[27] = Test C, preemergence, 125 g ai/ha

Cc1cccc2c1O[C@@H](C)CN2C(=O)c1cccc(-n2cnc(C(C)(C)O)n2)c1 [Compound 278]
Plant response rating, Sedge, Umbrella (Flood) (sedge, umbrella): 100 | Plant response rating, Oat, Wild (oat, wild [1]): 80 | Plant response rating, Barnyardgrass (barnyardgrass [2]; [24]): 50 | Plant response rating, Barnyardgrass (barnyardgrass [2]; [25]): 90 | Plant response rating, Rice (Flood) (rice): 15 | Plant response rating, Horseweed (horseweed; [24]): 0 | Plant response rating, Horseweed (horseweed; [25]): 50 | Plant response rating, Wheat (wheat [3]): 70 | Plant response rating, Corn (corn [4]; [24]): 50 | Plant response rating, Corn (corn [4]; [25]): 90 | Plant response rating, Galium (galium; [24]): 100 | Plant response rating, Galium (galium; [25]): 100 | Plant response rating, Barnyardgrass (barnyardgrass [5]; [26]): 100 | Barnyardgrass plant response rating (barnyardgrass [5]; [27]): 100 | Plant response rating, Ducksalad (Flood) (ducksalad): 100 | Plant response rating, Foxtail, Green (green foxtail [6]; [24]): 50 | Plant response rating, Foxtail, Green (green foxtail [6]; [25]): 90 | Soybean plant response rating (soybean [7]; 500 g ai/ha): 100 | Soybean plant response rating (soybean [7]; Test C, 125 g ai/ha): 90 | Kochia plant response rating (kochia [8]; 500 g ai/ha): 100 | Kochia plant response rating (kochia [8]; Test C, 125 g ai/ha): 90 | Plant response rating, Ryegrass, Italian (ryegrass, Italian [9]): 80 | Ryegrass, Italian plant response rating (ryegrass, Italian [10]; 500 g ai/ha): 100 | Ryegrass, Italian plant response rating (ryegrass, Italian [10]; Test C, 125 g ai/ha): 80 | Corn plant response rating (corn [11]): 80 | Oat, Wild plant response rating (oat, wild [12]; 500 g ai/ha): 90 | Oat, Wild plant response rating (oat, wild [12]; Test C, 125 g ai/ha): 80 | Plant response rating, Kochia (kochia [13]): 80 | Pigweed, Palmer plant response rating (pigweed, palmer [14]; 500 g ai/ha): 100 | Pigweed, Palmer plant response rating (pigweed, palmer [14]; Test C, 125 g ai/ha): 100 | Plant response rating, Pigweed, Palmer (pigweed, palmer [15]): 50 | Plant response rating, Ragweed (ragweed [16]): 70 | Wheat plant response rating (wheat [17]; 500 g ai/ha): 100 | Wheat plant response rating (wheat [17]; Test C, 125 g ai/ha): 50 | Ragweed plant response rating (ragweed [18]; 500 g ai/ha): 80 | Ragweed plant response rating (ragweed [18]; Test C, 125 g ai/ha): 70 | Foxtail, Green plant response rating (green foxtail [19]; 500 g ai/ha): 100 | Foxtail, Green plant response rating (green foxtail [19]; Test C, 125 g ai/ha): 100 | Plant response rating, Blackgrass (blackgrass [20]; [26]): 90 | Blackgrass plant response rating (blackgrass [20]; [27]): 90 | Plant response rating, Blackgrass (blackgrass [21]; [24]): 90 | Plant response rating, Blackgrass (blackgrass [21]; [25]): 90 | Plant response rating, Barnyardgrass (Flood) (barnyardgrass [22]): 45 | Plant response rating, Soybean (soybean [23]): 100

Source: patent US20260262643A1, “HERBICIDAL BENZOXAZINES” (FMC CORPORATION, priority 2022, published 2026)
